Source: patent US10131652B2, “Pyrimidinyloxy benzene derivatives as herbicides” (E. I. DU PONT DE NEMOURS AND COMPANY, priority 2014, dated 2018)

Legend:
Type in all cases: in vivo
[1] = system: small-flower umbrella sedge (Cyperus difformis); experiment: Test C flooded paddy test plant response; details: Flood, 250 g ai/ha; scale of 0 to 100 where 0 is no effect and 100 is complete control; 13 to 15 days
Procedure, shortened: (§1)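 Plants grown to the 2-leaf stage; pots flooded to 3 cm above soil, test compounds applied directly to paddy water, depth maintained throughout. Greenhouse for 13 to 15 days, then visual rating versus controls on a 0–100 scale (0 no effect, 100 complete control).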

[2] = system: ducksalad (Heteranthera limosa); experiment: Test C flooded paddy test plant response; details: Flood, 250 g ai/ha; scale of 0 to 100 where 0 is no effect and 100 is complete control; 13 to 15 days
Procedure, shortened: as §1

[3] = system: barnyardgrass (Echinochloa crus-galli); experiment: Test C flooded paddy test plant response; details: Flood, 250 g ai/ha; scale of 0 to 100 where 0 is no effect and 100 is complete control; 13 to 15 days
Procedure, shortened: as §1

rice (Oryza sativa) = experiment: Test C flooded paddy test plant response; details: Flood, 250 g ai/ha; scale of 0 to 100 where 0 is no effect and 100 is complete control; 13 to 15 days
Procedure, shortened: as §1

[4] = system: winter wheat (Triticum aestivum); experiment: Test D pre-/postemergence plant response; details: for Plant response rating, Wheat: Preemergence
Procedure, shortened: (§2)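 Test chemicals were formulated in a non-phytotoxic solvent mixture containing surfactant and applied either preemergence to seeds in loam–sand soil or postemergence to plants 2 to 18 cm tall (1- to 4-leaf stage). Response was rated visually against controls after 13 to 15 days, from 0 (none) to 100 (complete control).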

[5] = system: morningglory (Ipomoea coccinea); experiment: Test D pre-/postemergence plant response; details: for Plant response rating, Morningglory: Preemergence
Procedure, shortened: as §2

soybean (Glycine max) = experiment: Test D pre-/postemergence plant response; details: for Plant response rating, Soybean: Preemergence
Procedure, shortened: as §2

[6] = system: lambsquarters (Chenopodium album); experiment: Test D pre-/postemergence plant response; details: for Plant response rating, Lambsquarters: Preemergence
Procedure, shortened: as §2

[7] = system: johnsongrass (Sorghum halepense); experiment: Test D pre-/postemergence plant response; details: for Plant response rating, Johnsongrass: Preemergence
Procedure, shortened: as §2

[8] = system: velvetleaf (Abutilon theophrasti); experiment: Test D pre-/postemergence plant response; details: for Plant response rating, Velvetleaf: Preemergence
Procedure, shortened: as §2

[9] = system: waterhemp (common waterhemp, Amaranthus rudis); experiment: Test D pre-/postemergence plant response; details: for Plant response rating, Waterhemp: Preemergence
Procedure, shortened: as §2

[10] = system: giant foxtail (Setaria faberii); experiment: Test B pre-/postemergence plant response
Procedure, shortened: (§3)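 Steps: plant seeds in loam soil–sand mix; spray soil preemergence, and in parallel spray 2–10 cm one- to two-leaf plants postemergence; hold ~10 days in greenhouse; visually rate injury against untreated controls (0 = no effect, 100 = complete control).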

[11] = system: barnyardgrass (Echinochloa crus-galli); experiment: Test B pre-/postemergence plant response
Procedure, shortened: as §3

[12] = system: wheat (Triticum aestivum); experiment: Test B pre-/postemergence plant response
Procedure, shortened: as §3

[13] = system: pigweed (Amaranthus retroflexus); experiment: Test B pre-/postemergence plant response
Procedure, shortened: as §3

corn (Zea mays) = experiment: Test B pre-/postemergence plant response
Procedure, shortened: as §3

[14] = Postemergence, 31 g ai/ha, scale 0 to 100 (0 no effect, 100 complete control)
[15] = 4 g ai/ha, scale 0 to 100 (0 no effect, 100 complete control)
[16] = 8 g ai/ha, scale 0 to 100 (0 no effect, 100 complete control)
[17] = 16 g ai/ha, scale 0 to 100 (0 no effect, 100 complete control)
[18] = 31 g ai/ha, scale 0 to 100 (0 no effect, 100 complete control)
[19] = 125 g ai/ha, postemergence, 0 to 100 scale, 0 no effect, 100 complete control
[20] = Postemergence, 500 g ai/ha, 0 to 100 scale (0 no effect, 100 complete control)
[21] = Preemergence, 125 g ai/ha, 0 to 100 scale (0 no effect, 100 complete control)
[22] = Preemergence, 500 g ai/ha, 0 to 100 scale where 0 is no effect and 100 is complete control

SMILES: N#Cc1cccc(Oc2ncc(Cl)cn2)c1-c1cc(C(F)(F)F)on1 [Compound 157]
- Sedge, Umbrella plant response rating [1]: 40
- Ducksalad plant response rating [2]: 40
- Barnyardgrass plant response rating [3]: 0
- Rice plant response rating (rice (Oryza sativa)): 0
- Plant response rating (scale 0 to 100), Wheat ([4]; Postemergence, 4 g ai/ha): 0
- Plant response rating (scale 0 to 100), Wheat ([4]; Postemergence, 8 g ai/ha): 0
- Wheat plant response rating [4, 14]: 0
- Plant response rating, Wheat [4, 15]: 0
- Plant response rating, Wheat [4, 16]: 0
- Plant response rating, Wheat [4, 17]: 0
- Plant response rating, Wheat [4, 18]: 5
- Plant response rating (scale 0 to 100), Morningglory ([5]; Postemergence, 4 g ai/ha): 0
- Plant response rating (scale 0 to 100), Morningglory ([5]; Postemergence, 8 g ai/ha): 5
- Morningglory plant response rating [5, 14]: 35
- Plant response rating, Morningglory [5, 15]: 0
- Plant response rating, Morningglory [5, 16]: 0
- Plant response rating, Morningglory [5, 17]: 0
- Plant response rating, Morningglory [5, 18]: 10
- Plant response rating (scale 0 to 100), Soybean (soybean (Glycine max); Postemergence, 4 g ai/ha): 5
- Plant response rating (scale 0 to 100), Soybean (soybean (Glycine max); Postemergence, 8 g ai/ha): 10
- Soybean plant response rating (soybean (Glycine max); [14]): 35
- Plant response rating, Soybean (soybean (Glycine max); [15]): 0
- Plant response rating, Soybean (soybean (Glycine max); [16]): 0
- Plant response rating, Soybean (soybean (Glycine max); [17]): 0
- Plant response rating, Soybean (soybean (Glycine max); [18]): 50
- Plant response rating (scale 0 to 100), Lambsquarters ([6]; Postemergence, 4 g ai/ha): 20
- Plant response rating (scale 0 to 100), Lambsquarters ([6]; Postemergence, 8 g ai/ha): 25
- Lambsquarters plant response rating [6, 14]: 55
- Plant response rating, Lambsquarters [6, 15]: 0
- Plant response rating, Lambsquarters [6, 16]: 25
- Plant response rating, Lambsquarters [6, 17]: 100
- Plant response rating, Lambsquarters [6, 18]: 100
- Plant response rating (scale 0 to 100), Johnsongrass ([7]; Postemergence, 4 g ai/ha): 0
- Plant response rating (scale 0 to 100), Johnsongrass ([7]; Postemergence, 8 g ai/ha): 0
- Johnsongrass plant response rating [7, 14]: 0
- Plant response rating, Johnsongrass [7, 15]: 0
- Plant response rating, Johnsongrass [7, 16]: 0
- Plant response rating, Johnsongrass [7, 17]: 0
- Plant response rating, Johnsongrass [7, 18]: 5
- Plant response rating (scale 0 to 100), Velvetleaf ([8]; Postemergence, 4 g ai/ha): 5
- Plant response rating (scale 0 to 100), Velvetleaf ([8]; Postemergence, 8 g ai/ha): 5
- Velvetleaf plant response rating [8, 14]: 40
- Plant response rating, Velvetleaf [8, 15]: 0
- Plant response rating, Velvetleaf [8, 16]: 5
- Plant response rating, Velvetleaf [8, 17]: 45
- Plant response rating, Velvetleaf [8, 18]: 75
- Plant response rating (scale 0 to 100), Waterhemp ([9]; Postemergence, 4 g ai/ha): 20
- Plant response rating (scale 0 to 100), Waterhemp ([9]; Postemergence, 8 g ai/ha): 55
- Waterhemp plant response rating [9, 14]: 75
- Plant response rating, Waterhemp [9, 15]: 0
- Plant response rating, Waterhemp [9, 16]: 70
- Plant response rating, Waterhemp [9, 17]: 100
- Plant response rating, Waterhemp [9, 18]: 100
- Plant response rating, Foxtail, Giant [10, 19]: 70
- Plant response rating, Foxtail, Giant [10, 20]: 80
- Foxtail, Giant plant response rating [10, 21]: 80
- Plant response rating, Foxtail, Giant [10, 22]: 100
- Plant response rating, Barnyardgrass [11, 19]: 20
- Plant response rating, Barnyardgrass [11, 20]: 60
- Barnyardgrass plant response rating [11, 21]: 20
- Plant response rating, Barnyardgrass [11, 22]: 80
- Plant response rating, Wheat [12, 19]: 50
- Plant response rating, Wheat [12, 20]: 70
- Plant response rating, Pigweed [13, 19]: 100
- Plant response rating, Pigweed [13, 20]: 100
- Pigweed plant response rating [13, 21]: 100
- Plant response rating, Pigweed [13, 22]: 100
- Plant response rating, Corn (corn (Zea mays); [19]): 0
- Plant response rating, Corn (corn (Zea mays); [20]): 40
